Results reported in PubChem BioAssay AID248 (DTP/NCI, 2004).
Values joined by “and” are separate entries in the source; they are usually repeats but may differ in a detail not shown here. Equal values may be shown once. Toxic doses and inconclusive results are not listed. Cut-off read from the data, not from the text of the source: active = T/C of 150% or more; inactive = T/C below 125%.

Tested on: L1210 leukemia ip in BDF1 mice, survival T/C
Assay: NCI In Vivo Anticancer Drug Screen. Data for tumor model L1210 Leukemia (intraperitoneal) in B6D2F1 (BDF1) mice
Conditions: endpoint: mean survival time, higher = longer survival
Method in brief: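 Read-out is survival time, reported as the treated-group measurement over the vehicle-control measurement.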

[1] = dose: 100.0 mg/kg/injection, schedule: Q01DX009 (ip), vehicle: Klucel (hydroxypropylcellulose) (HPC)
[2] = dose: 100.0 mg/kg/injection, schedule: Q04DX003 (ip), vehicle: Klucel (hydroxypropylcellulose) (HPC)
[3] = dose: 200.0 mg/kg/injection, schedule: Q01DX009 (ip), vehicle: Klucel (hydroxypropylcellulose) (HPC)
[4] = dose: 200.0 mg/kg/injection, schedule: Q04DX003 (ip), vehicle: Klucel (hydroxypropylcellulose) (HPC)
[5] = dose: 400.0 mg/kg/injection, schedule: Q01DX009 (ip), vehicle: Klucel (hydroxypropylcellulose) (HPC)
[6] = dose: 400.0 mg/kg/injection, schedule: Q04DX003 (ip), vehicle: Klucel (hydroxypropylcellulose) (HPC)
[7] = dose: 100.0 mg/kg/injection, schedule: Q01DX001 (ip), vehicle: carboxymethylcellulose (CMC)
[8] = dose: 200.0 mg/kg/injection, schedule: Q01DX001 (ip), vehicle: carboxymethylcellulose (CMC)
[9] = dose: 400.0 mg/kg/injection, schedule: Q01DX001 (ip), vehicle: carboxymethylcellulose (CMC)
[10] = dose: 100.0 mg/kg/injection, schedule: Q04DX002 (ip), vehicle: Klucel (hydroxypropylcellulose) (HPC)
[11] = dose: 200.0 mg/kg/injection, schedule: Q04DX002 (ip), vehicle: Klucel (hydroxypropylcellulose) (HPC)
[12] = dose: 400.0 mg/kg/injection, schedule: Q04DX002 (ip), vehicle: Klucel (hydroxypropylcellulose) (HPC)
[13] = dose: 25.0 mg/kg/injection, schedule: Q01DX009 (ip), vehicle: saline
[14] = dose: 100.0 mg/kg/injection, schedule: Q01DX009 (ip), vehicle: saline
[15] = dose: 100.0 mg/kg/injection, schedule: Q04DX003 (ip), vehicle: saline
[16] = dose: 100.0 mg/kg/injection, schedule: Q01DX001 (ip), vehicle: saline
[17] = dose: 200.0 mg/kg/injection, schedule: Q01DX001 (ip), vehicle: saline
[18] = dose: 400.0 mg/kg/injection, schedule: Q01DX001 (ip), vehicle: saline
[19] = dose: 50.0 mg/kg/injection, schedule: Q01DX009 (ip), vehicle: Klucel (hydroxypropylcellulose) (HPC)

Measured: T/C

Cc1c(Cl)cccc1NC(=O)c1cccc([N+](=O)[O-])c1
inactive: [1] 103 % of control | [2] 96 % of control | [3] 95 % of control | [4] 93 % of control | [5] 94 % of control | [6] 91 % of control

CC1OC(OC2C(O)C(O)C(O)C(O)C2O)C(N)CC1N=C(N)C(=O)O (stereo not given)
inactive: [7] 90 % of control | [8] 96 % of control | [9] 100 % of control

O=S1(=O)CC(c2ccccc2)(c2ccccc2)N1
inactive: [10] 108 % of control | [11] 112 % of control | [12] 96 % of control

CC1(C)CN1c1nc(N2CC2(C)C)nc(N2CC2(C)C)n1
inactive: dose: 44.0 mg/kg/injection, schedule: Q01DX001 (ip), vehicle: carboxymethylcellulose (CMC) 106 % of control and 108 % of control | dose: 66.0 mg/kg/injection, schedule: Q01DX001 (ip), vehicle: carboxymethylcellulose (CMC) 106 % of control and 108 % of control | [7] 113 % of control and 120 % of control | dose: 150.0 mg/kg/injection, schedule: Q01DX001 (ip), vehicle: carboxymethylcellulose (CMC) 116 % of control and 118 % of control | [8] 118 % of control

O=C(OC/C(=C\Cl)OC(=O)c1ccc([N+](=O)[O-])cc1)c1ccc([N+](=O)[O-])cc1
inactive: [1] 100 % of control | [3] 105 % of control | [5] 100 % of control

CCC(=O)OC(CCN(C)C)(Cc1ccccc1)c1ccccc1 (stereo not given)
inactive: [13] 100 % of control | dose: 50.0 mg/kg/injection, schedule: Q01DX009 (ip), vehicle: saline 95 % of control | [14] 101 % of control | [15] 93 % of control

Cc1ccc(S(=O)(=O)OCC2C(c3ccccc3)CCC(c3ccccc3)C2COS(=O)(=O)c2ccc(C)cc2)cc1 (stereo not given)
inactive: [1] 90 % of control | [2] 103 % of control | [3] 94 % of control | [4] 105 % of control | [6] 100 % of control

CC(=O)N1CC=C2c3c1ccc(C)c3C(=O)C2C(N)=O (stereo not given)
inactive: [16] 97 % of control | [17] 94 % of control | [18] 94 % of control

COc1ccc(OC)c(/C=C/[N+](=O)[O-])c1
inactive: dose: 6.25 mg/kg/injection, schedule: Q01DX009 (ip), vehicle: Klucel (hydroxypropylcellulose) (HPC) 105 % of control | dose: 12.5 mg/kg/injection, schedule: Q01DX009 (ip), vehicle: Klucel (hydroxypropylcellulose) (HPC) 102 % of control | dose: 25.0 mg/kg/injection, schedule: Q01DX009 (ip), vehicle: Klucel (hydroxypropylcellulose) (HPC) 107 % of control | [19] 105 % of control | dose: 100.0 mg/kg/injection, schedule: Q04DX003 (ip), vehicle: gum acacia 97 % of control

O=C(OC(COC(c1ccccc1)(c1ccccc1)c1ccccc1)C(OC(=O)c1ccccc1)C(COC(c1ccccc1)(c1ccccc1)c1ccccc1)OC(=O)c1ccccc1)c1ccccc1 (stereo not given)
inactive: [2] 93 % of control | [4] 93 % of control | [6] 93 % of control

C=C(NC(C)=O)C(O)c1ccc([N+](=O)[O-])cc1 (stereo not given)
inactive: dose: 50.0 mg/kg/injection, schedule: Q01DX001 (ip), vehicle: carboxymethylcellulose (CMC) 96 % of control | [7] 100 % of control and 90 % of control | [1] 95 % of control | [2] 101 % of control | [8] 94 % of control and 97 % of control | [3] 93 % of control | [4] 98 % of control | [9] 100 % of control and 87 % of control | [5] 95 % of control | [6] 95 % of control

CC(C)N(CC#N)C(C)C
inactive: dose: 0.25 mg/kg/injection, schedule: Q01DX009 (ip), vehicle: saline with Tween-80 93 % of control | dose: 0.5 mg/kg/injection, schedule: Q01DX009 (ip), vehicle: saline with Tween-80 95 % of control

C=C(Br)CNS(C)(=O)=O
inactive: dose: 6.25 mg/kg/injection, schedule: Q01DX009 (ip), vehicle: saline 106 % of control | dose: 12.5 mg/kg/injection, schedule: Q01DX009 (ip), vehicle: saline 95 % of control | dose: 12.5 mg/kg/injection, schedule: Q04DX003 (ip), vehicle: saline 98 % of control | [13] 96 % of control | dose: 25.0 mg/kg/injection, schedule: Q04DX003 (ip), vehicle: saline 104 % of control

NC(=Nc1ccccc1)SCc1ccc([N+](=O)[O-])cc1
inactive: [19] 108 % of control | dose: 100.0 mg/kg/injection, schedule: Q01DX005 (ip), vehicle: Klucel (hydroxypropylcellulose) (HPC) 97 % of control | [1] 104 % of control | [10] 104 % of control | dose: 200.0 mg/kg/injection, schedule: Q01DX005 (ip), vehicle: Klucel (hydroxypropylcellulose) (HPC) 92 % of control | [11] 112 % of control | [12] 89 % of control

CCN(CC)CCSC(=O)C(O)(c1ccccc1)C1CCCCC1 (stereo not given)
inactive: dose: 75.0 mg/kg/injection, schedule: Q01DX001 (ip), vehicle: other 100 % of control

O=C1c2cc([N+](=O)[O-])ccc2-c2cc(Br)c(N=C(NO)C(F)(F)F)cc21
inactive: [7] 103 % of control | [8] 98 % of control | [9] 95 % of control

COc1cc2c(cc1OC)C1C(O)C(OC)C=C3CCN(C2)C31 (stereo not given)
inactive: [16] 100 % of control | [17] 97 % of control | [18] 103 % of control

CC(CC(C)(C)C)C(=O)CCC(C)(C)C (stereo not given)
inactive: dose: 100.0 mg/kg/injection, schedule: Q01DX001 (ip), vehicle: saline with Tween-80 103 % of control | dose: 200.0 mg/kg/injection, schedule: Q01DX001 (ip), vehicle: saline with Tween-80 95 % of control | dose: 400.0 mg/kg/injection, schedule: Q01DX001 (ip), vehicle: saline with Tween-80 101 % of control

CCCC(NC(C)=O)C(=O)O (stereo not given)
inactive: [16] 94 % of control | [14] 94 % of control and 101 % of control | dose: 100.0 mg/kg/injection, schedule: Q04DX002 (ip), vehicle: saline 98 % of control and 111 % of control and 112 % of control | [15] 98 % of control | [17] 96 % of control | dose: 200.0 mg/kg/injection, schedule: Q01DX009 (ip), vehicle: saline 94 % of control and 90 % of control | dose: 200.0 mg/kg/injection, schedule: Q04DX002 (ip), vehicle: saline 108 % of control and 122 % of control and 123 % of control | dose: 200.0 mg/kg/injection, schedule: Q04DX003 (ip), vehicle: saline 96 % of control | [18] 93 % of control | dose: 400.0 mg/kg/injection, schedule: Q01DX009 (ip), vehicle: saline 99 % of control and 87 % of control | dose: 400.0 mg/kg/injection, schedule: Q04DX002 (ip), vehicle: saline 98 % of control and 111 % of control and 112 % of control | dose: 400.0 mg/kg/injection, schedule: Q04DX003 (ip), vehicle: saline 95 % of control

COc1ccc(Nc2ccccc2C(=O)NN)cc1
inactive: [19] 102 % of control | [1] 96 % of control | [2] 94 % of control | [4] 105 % of control

Cc1c(-c2ccccc2)oc2c(C(=O)OCCN3CCCCC3)cccc2c1=O
inactive: [16] 102 % of control | [17] 102 % of control | [18] 96 % of control

C/C=C/C=N/n1c(CCC)nc2ccccc2c1=O
inactive: [10] 90 % of control | [11] 104 % of control
